According to patent publication US20150126364A1, “1,3-DIARYL-SUBSTITUTED HETEROCYCLIC PESTICIDES” (E I DU PONT DE NEMOURS AND COMPANY, priority 2012, published 2015):

Tested on: potato leafhopper (Empoasca fabae)
Assay: Test D: control of potato leafhopper on Soleil bean plant, contact and/or systemic
Type: in vivo
Details: 144 h, 6 days, very good to excellent control, read-out: control efficacy: mortality; for mortality at 50 ppm: sprayed at 50 ppm; for mortality at 250 ppm: sprayed at 250 ppm
Description: Test compounds were formulated using a solution containing 10% acetone, 90% water and 300 ppm X-77® Spreader Lo-Foam Formula non-ionic surfactant containing alkylarylpolyoxyethylene, free fatty acids, glycols and isopropanol (Loveland Industries, Inc. Greeley, Colo., USA). The formulated compounds were applied in 1 mL of liquid through a SUJ2 atomizer nozzle with ⅛ JJ custom body (Spraying Systems Co., Wheaton, Ill., USA) positioned 1.27 cm (0.5 inches) above the top of each test unit. Test compounds were sprayed at 250 ppm and/or 50 ppm, and replicated three times. After spraying of the formulated test compound, each test unit was allowed to dry for 1 h and then a black, screened cap was placed on top. The test units were held for 6 days in a growth chamber at 25° C. and 70% relative humidity. Plant feeding damage was then visually assessed based on foliage consumed.
For evaluating control of potato leafhopper (Empoasca fabae) through contact and/or systemic means, the test unit consisted of a small open container with a 5-6-day-old Soleil bean plant (primary leaves emerged) inside. White sand was added to the top of the soil and one of the primary leaves was excised prior to application.
Test compounds were formulated and sprayed at 250 ppm and/or 50 ppm, and the tests were replicated three times as described for Test A. After spraying, the test units were allowed to dry for 1 h before they were post-infested with 5 potato leafhoppers (18-21-day-old adults). A black, screened cap was placed on the top of each test unit, and the test units were held for 6 days in a growth chamber at 24° C. and 70% relative humidity. Each test unit was then visually assessed for insect mortality.

COC(=O)C1CCN(Cc2cc(-c3cccc(C(F)(F)F)c3)nn2-c2ccc(F)cc2)CC1 [Compound 6, methyl 1-[[1-(4-fluorophenyl)-3-[3-(trifluoromethyl)phenyl]-1H-pyrazol-5-yl]methyl]-4-piperidinecarboxylate]
mortality at 50 ppm: ≥ 80% | mortality at 250 ppm: ≥ 80%

CC(=O)NC1CCN(Cc2oc(-c3cccc(C(F)(F)F)c3)nc2-c2ccc(F)cc2)CC1 [Compound 65, N-[1-[[4-(4-fluorophenyl)-2-[3-(trifluoromethyl)phenyl]-5-oxazolyl]methyl]-4-piperidinyl]acetamide]
mortality at 50 ppm: ≥ 80% | mortality at 250 ppm: ≥ 80%

Cn1c(-c2cccc(C(F)(F)F)c2)nc(CN2CCOCC2)c1-c1ccc(F)cc1F (single isomer, unassigned) [Compound 49, 4-[[5-(2,4-difluorophenyl)-1-methyl-2-[3-(trifluoromethyl)phenyl]-1H-imidazol-4-yl]methyl]morpholine]
mortality at 250 ppm: ≥ 80%

N#CC1CCN(Cc2c(-c3ccc(F)cc3F)nc3n2CCc2ccc(Cl)cc2-3)CC1 [Compound 151]
mortality at 250 ppm: ≥ 80%

Fc1ccc(-c2[nH]c(-c3cccc(C(F)(F)F)c3)nc2CN2CCOCC2)c(F)c1 [Compound 44, 4-[[5-(2,4-difluorophenyl)-2-[3-(trifluoromethyl)phenyl]-1H-imidazol-4-yl]methyl]morpholine]
mortality at 50 ppm: ≥ 80% | mortality at 250 ppm: ≥ 80%

N#CC1CCN(Cc2c(-c3ccc(F)cc3F)nc3n2CCc2cc(Cl)ccc2-3)CC1 [Compound 155]
mortality at 250 ppm: ≥ 80%
